Data as given in the NIST ThermoML archive (doi:10.1016/j.jct.2015.12.021).

Details: Liquid

Cc1ccc(C)c(C)c1 [1,2,4-trimethylbenzene]
viscosity [mPa·s]
Details	293.15 K	313.15 K	333.15 K	353.15 K
100 kPa, Vibrating wire viscometry	0.8929	0.6989	0.5596	0.4527
1000 kPa, Vibrating wire viscometry	0.9065	0.7096	0.5646	0.4566
5000 kPa, Falling or rolling sphere viscometry	0.913	0.7254	0.5819	0.4715
5000 kPa, Vibrating wire viscometry	0.9417	0.7359	0.5885	0.4711
10000 kPa, Falling or rolling sphere viscometry	0.9568	0.7531	0.6058	0.492
10000 kPa, Vibrating wire viscometry	0.9769	0.7606	0.6066	0.4886
20000 kPa, Falling or rolling sphere viscometry	1.042	0.8131	0.6529	0.532
20000 kPa, Vibrating wire viscometry	1.061	0.8203	0.6476	0.5283
30000 kPa, Falling or rolling sphere viscometry	1.137	0.8704	0.7014	0.571
30000 kPa, Vibrating wire viscometry	1.148	0.8894	0.6942	0.5626
40000 kPa, Falling or rolling sphere viscometry	1.224	0.9344	0.7504	0.6125
40000 kPa, Vibrating wire viscometry	1.233	0.9528	0.7426	0.5993
50000 kPa, Vibrating wire viscometry	1.336	1.026	0.7922	0.6375
60000 kPa, Falling or rolling sphere viscometry	–	1.07	0.8467	0.6967
60000 kPa, Vibrating wire viscometry	1.435	1.1	0.8456	0.6768
70000 kPa, Vibrating wire viscometry	1.566	1.171	0.9004	0.7177
80000 kPa, Falling or rolling sphere viscometry	–	1.25	0.9594	0.7819
80000 kPa, Vibrating wire viscometry	1.693	1.249	0.9675	0.7606
100000 kPa, Falling or rolling sphere viscometry	–	–	1.086	0.8778
100000 kPa, Vibrating wire viscometry	1.952	1.415	1.094	0.8518
120000 kPa, Falling or rolling sphere viscometry	–	–	1.228	0.9727
120000 kPa, Vibrating wire viscometry	2.288	1.599	1.221	0.9515
140000 kPa, Vibrating wire viscometry	2.668	1.824	1.343	1.065

CC(C)CC(C)(C)C [2,2,4-trimethylpentane]
viscosity [mPa·s]
Details	293.15 K	298.15 K	313.15 K	323.15 K	333.15 K	348.15 K	353.15 K
100 kPa, Vibrating wire viscometry	0.5064	0.4746	0.4035	0.3645	0.3265	0.2829	0.2738
1000 kPa, Vibrating wire viscometry	0.51	0.4819	0.4114	0.3694	0.3296	0.2863	0.2748
5000 kPa, Falling or rolling sphere viscometry	0.5412	–	0.4251	–	0.3468	–	–
5000 kPa, Vibrating wire viscometry	0.5399	0.509	0.4353	0.3915	0.3515	0.306	0.2923
10000 kPa, Falling or rolling sphere viscometry	0.5744	–	0.4517	–	0.37	–	–
10000 kPa, Vibrating wire viscometry	0.5733	0.5388	0.4633	0.4157	0.3754	0.3274	0.3175
20000 kPa, Falling or rolling sphere viscometry	0.6401	–	0.5129	–	0.4153	–	–
20000 kPa, Vibrating wire viscometry	0.6366	0.6027	0.5177	0.464	0.4216	0.3692	0.357
30000 kPa, Falling or rolling sphere viscometry	0.7047	–	0.5662	–	0.459	–	–
30000 kPa, Vibrating wire viscometry	0.7059	0.6672	0.5775	0.5146	0.4705	0.4131	0.3966
40000 kPa, Falling or rolling sphere viscometry	0.7738	–	0.6128	–	0.5083	–	–
40000 kPa, Vibrating wire viscometry	0.7817	0.7394	0.6351	0.5714	0.5232	0.4565	0.4379
50000 kPa, Vibrating wire viscometry	0.8608	0.8154	0.6902	0.6255	0.579	0.5022	0.4853
60000 kPa, Falling or rolling sphere viscometry	0.9262	–	0.7307	–	0.6083	–	–
60000 kPa, Vibrating wire viscometry	0.9567	0.8956	0.7509	0.6832	0.6246	0.5476	0.5294
70000 kPa, Vibrating wire viscometry	1.042	0.9815	0.8173	0.742	0.6779	0.6049	0.5738
80000 kPa, Falling or rolling sphere viscometry	1.115	–	0.8553	–	0.6981	–	–
80000 kPa, Vibrating wire viscometry	1.127	1.07	0.8861	0.7969	0.728	0.6507	0.6288
100000 kPa, Falling or rolling sphere viscometry	1.298	–	1.024	–	0.8101	–	–
100000 kPa, Vibrating wire viscometry	1.316	1.234	1.045	0.9249	0.8361	0.7538	0.7176
120000 kPa, Falling or rolling sphere viscometry	–	–	1.185	–	0.9406	–	–
120000 kPa, Vibrating wire viscometry	1.518	1.435	1.195	1.068	0.9606	0.864	0.8245
140000 kPa, Vibrating wire viscometry	1.739	1.648	1.363	1.21	1.095	0.977	0.9332

CCCCCCCCCCCC [dodecane]
viscosity [mPa·s]
Details	293.15 K	313.15 K	333.15 K	353.15 K	373.15 K
100 kPa, Vibrating wire viscometry	1.491	1.064	0.8013	0.6281	0.5055
1000 kPa, Vibrating wire viscometry	1.507	1.074	0.8127	0.6372	0.5149
5000 kPa, Falling or rolling sphere viscometry	–	1.135	0.8518	0.6657	–
5000 kPa, Vibrating wire viscometry	1.586	1.124	0.855	0.6713	0.5392
10000 kPa, Falling or rolling sphere viscometry	–	1.218	0.903	0.7047	–
10000 kPa, Vibrating wire viscometry	1.672	1.201	0.8975	0.7053	0.5743
20000 kPa, Falling or rolling sphere viscometry	–	–	1.002	0.7791	–
20000 kPa, Vibrating wire viscometry	1.877	1.324	1.001	0.7819	0.6286
30000 kPa, Falling or rolling sphere viscometry	–	–	1.112	0.8651	–
30000 kPa, Vibrating wire viscometry	2.084	1.476	1.095	0.8694	0.7003
40000 kPa, Falling or rolling sphere viscometry	–	–	1.223	0.9597	–
40000 kPa, Vibrating wire viscometry	2.31	1.625	1.216	0.9528	0.7715
50000 kPa, Vibrating wire viscometry	2.56	1.778	1.321	1.037	0.8425
60000 kPa, Falling or rolling sphere viscometry	–	–	–	1.121	–
60000 kPa, Vibrating wire viscometry	2.822	1.946	1.44	1.123	0.91
70000 kPa, Vibrating wire viscometry	3.112	2.129	1.576	1.213	0.9844
80000 kPa, Vibrating wire viscometry	3.428	2.32	1.707	1.312	1.066
100000 kPa, Vibrating wire viscometry	4.117	2.758	1.994	1.532	1.22
120000 kPa, Vibrating wire viscometry	4.953	3.231	2.302	1.757	1.402
140000 kPa, Vibrating wire viscometry	5.816	3.755	2.657	2.023	1.588
